In the OPERA property sets (Mansouri et al. 2018) one finds solubility data, which are given here for 18 compounds.

Values after ≈ are worked out from the molar mass of the structure shown.

The term solubility denotes the dissolved amount per volume that the medium holds. High values mean much dissolved substance, low ones little dissolved substance. `FC(Cl)Cl` registered a solubility (25 °C) of 183 mM (≈ 18800 µg/mL).

Where the note is “25 °C”, `BrC(Br)Br` came in with a solubility of 13.8 mM (≈ 3490 µg/mL). Compared with the last compound, the solubility is about 13-fold lower.

Consider `FC(F)F`, for which the solubility (25 °C) turned out to be 58.4 mM (≈ 4090 µg/mL).

For the compound `FC(F)Cl`, for the setting “25 °C”, the solubility is 32 mM (≈ 2770 µg/mL). Against the preceding compound, the solubility is about 1.8-fold lower.

Take `CC(Cl)CCl` (stereo not drawn): the solubility (25 °C) was found to be 24.8 mM (≈ 2800 µg/mL).

With `FC(F)(F)Br`, where the note is “25 °C”, the solubility was 2.15 mM (≈ 320 µg/mL).

Compound `CF` returned a solubility (20 °C) of 667 mM (≈ 22700 µg/mL).

For `FC(F)(F)F`, the solubility (25 °C) was 0.214 mM (≈ 18.8 µg/mL).

For `BrC=CBr`, the solubility (25 °C) was found to be 34.7 mM (≈ 6440 µg/mL).

With `CBr`, the solubility (25 °C) came out at 160 mM (≈ 15200 µg/mL).

Regarding `FC(F)=C(F)F`, the solubility (25 °C) amounted to 1.58 mM (≈ 158 µg/mL). This solubility is about 100-fold lower than that of the compound before.

As for `C=C(F)F`, the solubility (25 °C) was 197 mM (≈ 12600 µg/mL).

Compound `CI` came in with a solubility (20 °C) of 97.2 mM (≈ 13800 µg/mL).

`ClCCl` displayed a solubility (25 °C) of 153 mM (≈ 13000 µg/mL).

Compound `CC(F)F` registered a solubility (21 °C) of 48.5 mM (≈ 3200 µg/mL).

As for `FC(F)(F)C(F)(F)Cl`, the solubility (25 °C) was 0.382 mM (≈ 59 µg/mL).

For `ClC(Cl)(Cl)Cl`, the solubility (25 °C) was 5.16 mM (≈ 793 µg/mL).

Take `Clc1ccccc1`: the solubility (25 °C) was 4.42 mM (≈ 498 µg/mL).
